The nature of assay [1]: Reductase (reducing) activity of peptides, fluorescent FITC-peptide assay. It counts as biochemical. The conditions noted are these: fluorescent FITC-peptide disulfide reduction; dithiothreitol control = 100%. On the procedure: The reductase activity of the peptides is determined using a fluorescent described in Tomazzolli et al. (2006) Anal. Biochem. 350, 105-112. Two peptides with a FITC label become self-quenching when they covalently attached to each other via a disulfide bridge. Upon reduction by a peptide in accordance with the present invention, the reduced individual peptides become fluorescent again.
Control experiments were performed with dithiothreitol (100% reducing activity) and water (100% reducing activity).

Assay [2] deals with PBMCs from T1D-patient T1D018 (IL5 positive cells). The assay is described as follows: sFasL release in cell lines generated from T1D-patient PBMCs. In kind it is cell-based, human. The settings on record: IL5 positive cells after 6 stimulation cycles, restimulated 24 h with cognate peptide; ELISA; p<0,0001. On the procedure:
FIG. 1: Release of sFasL in cell lines generated with p17-003 or p17-001. Cells specific for p17-003 or p17-001 (IL5 positive cells; black histograms) were restimulated for 24 h with antigen presenting cells loaded with peptides p17-003 or p17-001, depending of the peptide used for their generation, and supernatant collected after 24 h of co-culture. IL-5 negative cells are for control PBMC populations (open histograms). Results represent mean+/−SD of sFasL concentration corrected per cell number.
(§1) PBMCs from T1D-patient T1D018 were stimulated in vitro either with P17001 peptide or P17003 peptide. These two populations specifically release […] after antigenic activation. After 6 stimulation cycles with the peptides, both cell lines were enriched for IL-5 producing cells with cytokine capture beads. The two populations of Interleukin-5 negative cells were used as controls.
(§2) These four populations are then tested for specific release of sFasL, Granzyme B and cytokines after stimulation with their cognate peptide (P17-001 or P17-003). Supernatants are collected after 24 h of culture and sFasL and Granzyme B are measured by ELISA (sFasL: Diaclone 851730010; Granzyme B: eBioscience BMS2027) and cytokines by MACSplex Cytokine 12 kit (Miltenyi, 130-099-169).

Assay [3] concerns PBMCs from T1D-patient T1D018 (IL5 positive fraction). Description: Cytokine release in cell lines generated from T1D-patient PBMCs (MACSplex Cytokine 12 kit). In kind it is cell-based, human. The conditions noted are these: supernatant after 24 h, end of stimulation 10; FIG. 2. On the procedure: as §1, §2
To determine if the in vitro cultured cells from T1D donors are specific for peptide P17001 or P17003, the release of cytokines, a hallmark for cell activation upon peptide stimulation, was investigated using MACSplex Cytokine 12 kit (Miltenyi, 130-099-169). Supernatant was collected after 24 h from the culture of T1D donor PBMCs in the absence or presence of the peptide. […] Specificity test was performed at the end of stimulation 10 (resting day). The result is presented as the difference in concentration of each cytokine in the condition without and with peptide.

Assay [4] concerns CD4+ T cell lines from T1D patients. Description: FasL release by cytolytic CD4+ T cell lines. It counts as cell-based, human. The settings on record: for FasL expression (pg/ml) Stimulation 1: day 11 of stimulation 1; for FasL expression (pg/ml) Stimulation 1 / FasL expression (pg/ml) Stimulation 2 / FasL expression (pg/ml) Stimulation 3 / FasL expression (pg/ml) Stimulation 4: restimulation with corresponding peptide presented by autologous B cells; for FasL expression (pg/ml) Stimulation 1 / FasL expression (pg/ml) Stimulation 2: supernatant after 24 h; for FasL expression (pg/ml) Stimulation 2: day 11 of stimulation 2; for FasL expression (pg/ml) Stimulation 3: day 11 of stimulation 3; for FasL expression (pg/ml) Stimulation 3 / FasL expression (pg/ml) Stimulation 4: supernatant after 72 h; for FasL expression (pg/ml) Stimulation 4: day 11 of stimulation 4. On the procedure:
The T cell line originally generated with p17 001 as described in example 3 above was divided and stimulated with peptide P17 003 or P17 001 over 4 successive in vitro stimulations using autologous LCL B cell line as APC. At day 11 of every stimulation (total of 4), cells were tested for FasL after restimulation with their corresponding peptide presented by autologous B cells. Supernatants were collected after 24 h (stimulation 1 and 2) or 72 h (stimulation 3 and 4) of co-culture.

The subject of assay [5] is CD4+ T cell line from a T1D patient (T1D07). The assay is described as follows: Interferon gamma release by cytolytic CD4+ T cell line. It counts as cell-based, human. The conditions noted are these: for IFN-gamma (pg/ml), Stimulus 1: T cell line primed with p17-001, after 12 stimulations, co-culture with autologous LCL B cells loaded (2 μM) with peptide, supernatant after 24 hours, multiplex assay. On the procedure: Interferon gamma is an important marker to characterise cytolytic CD4+ T cells. A specific CD4+ T cell line was obtained by priming and stimulating naïve CD4+ T cells from a T1D patient (T1D07) with peptide p17-001. After 12 stimulations, cells were co-cultured with autologous LCL B cells loaded (2 μM) with peptide p17-001 or p17-003. After 24 hours, supernatants were collected and IFN-gamma was measured by multiplex assay (see table 1 below).

`O[C@H](CS)[C@H](O)CS` (racemic) [dithiothreitol] yielded a reducing activity in assay [1] of 100%.

The molecule “HCPYCSLQPLALEGSLQKRG (peptide with redox motif and insulin T cell epitope) [P17 003]” registered a reducing activity in assay [1] of 65%. The “sFasL release compared with cells generated by peptide p17-001” value in assay [2] amounted to 4.5 fold. The “eliciting peptide specific cells (cytokine release upon peptide stimulation) compared with P17001” value in assay [3] is on record as “more potent”. In addition, in assay [4], the “FasL expression (pg/ml) Stimulation 1” value came out at 1795 ± 42.4 pg/mL, the “FasL expression (pg/ml) Stimulation 2” value amounted to 1812 ± 34.7 pg/mL, the “FasL expression (pg/ml) Stimulation 3” value was determined as 2063 ± 166 pg/mL and the “FasL expression (pg/ml) Stimulation 4” value came out at 1526 ± 102 pg/mL. In addition, in assay [4] (each of the four stimulations), the “FasL (sFasL) expression compared to P17-001” value is recorded as “significantly higher”. Moreover, the “IFN-gamma (pg/ml), Stimulus 1” value in assay [5] was 29.7 ± 14.1 pg/mL. The “IFN-gamma produced after stimulation with p17 003 compared to p17 001” value in assay [5] (ratio of Table 1 values) was “about 3 times”.

Turning to “HCPYC VR SLQPLALEGSLQKRG (HCPYCVRSLQPLALEGSLQKRG; peptide with redox motif and insulin T cell epitope) [P17 001, reference compound]”, in assay [1], the reducing activity came out at 68%. In assay [4], the “FasL expression (pg/ml) Stimulation 1” value came out at 1335 ± 23.1 pg/mL, the “FasL expression (pg/ml) Stimulation 2” value amounted to 1144 ± 15.4 pg/mL, the “FasL expression (pg/ml) Stimulation 3” value was 1227 ± 49.1 pg/mL and the “FasL expression (pg/ml) Stimulation 4” value is 1008 ± 102 pg/mL. Also, in assay [5], the “IFN-gamma (pg/ml), Stimulus 1” value is 11.1 ± 0.8 pg/mL.

For the origin of these results see patent US12583891B2, “Peptides and methods for the treatment of diabetes” (IMCYSE SA, priority 2017, dated 2026).
